Values joined by “and” are separate entries in the source; they are usually repeats but may differ in a detail not shown here. Equal entries are not always repeated.
Experiments:
[1] = Plasma toxicokinetics after single intravenous administration in mice; assay type: in vivo, B6C3F1/N mice; conditions: for AUC(0-inf) / Cmax / Vd / half-life: B6C3F1/N, mouse, iv, 34 mg/kg; for half-life / Cl1 / Cl2 / K12 / K21 / V1 / V2: free BPAF, 34 mg/kg IV, mean (SE)
[2] = rat uterotrophic assay; administered orally; ref Conley et al., 2016; cited from earlier work
[3] = system: hepatocytes from humans and rodents; conditions: ref Waidyanatha et al., 2015, cited from earlier work
[4] = Plasma toxicokinetics after single intravenous administration in rats; assay type: in vivo, Harlan Sprague Dawley rats; conditions: for AUC(0-inf) / Cmax / Vd: Hsd:Sprague Dawley SD, rat, iv, 34 mg/kg
[5] = rat, sex and strain not specified; ref Halocarbon, 2008; cited from earlier work
[6] = Plasma toxicokinetics after single gavage administration in rats; assay type: in vivo, Harlan Sprague Dawley rats; conditions: for bioavailability / Tmax / AUC(0-inf) / Cmax / half-life: rat, po; for bioavailability / Tmax / AUC(0-inf) / Cmax / half-life / Cl1_F / Cl2_F / K12 / K21 / V1_F / V2_F: plasma; for half-life / Cl1_F / Cl2_F / K12 / K21 / V1_F / V2_F: mean (SE)
[7] = Plasma toxicokinetics after single gavage administration in mice; assay type: in vivo, B6C3F1/N mice; conditions: for half-life / AUC(0-inf) / Cmax / Tmax / bioavailability: 34 mg/kg; for bioavailability: AUC/Dose (oral) ÷ AUC/Dose (IV) x 100
[8] = free BPAF; rats; single gavage 20 and 100 mg/kg; ref Li et al. (2013); cited from earlier work
[9] = free BPAF, female rats, 34 mg/kg IV, mean (SE)
[10] = free BPAF, male rats, 34 mg/kg IV, mean (SE)
[11] = female, Harlan Sprague Dawley (Hsd:Sprague Dawley SD), 34 mg/kg
[12] = female, Hsd:Sprague Dawley SD, 34 mg/kg
[13] = female, Hsd:Sprague Dawley SD, 110 mg/kg
[14] = female, Hsd:Sprague Dawley SD, 340 mg/kg
[15] = free BPAF, female HSD rats, 34 mg/kg gavage
[16] = free BPAF, female rats, 34 mg/kg gavage
[17] = free BPAF, female rats, 110 mg/kg gavage
[18] = free BPAF, female rats, 340 mg/kg gavage
[19] = free BPAF, male rats, 34 mg/kg gavage
[20] = free BPAF, male rats, 110 mg/kg gavage
[21] = free BPAF, male rats, 340 mg/kg gavage
[22] = male, Hsd:Sprague Dawley SD, 34 mg/kg
[23] = male, Hsd:Sprague Dawley SD, 110 mg/kg
[24] = male, Hsd:Sprague Dawley SD, 340 mg/kg
[25] = female, B6C3F1/N, mouse, plasma, po
[26] = free BPAF, female B6C3F1/N mice, 34 mg/kg gavage
[27] = free BPAF, female mice, 34 mg/kg gavage, plasma, mean (SE)
[28] = free BPAF, male mice, 34 mg/kg gavage, plasma, mean (SE)
[29] = male, B6C3F1/N, mouse, plasma, po

Oc1ccc(C(c2ccc(O)cc2)(C(F)(F)F)C(F)(F)F)cc1 [BPAF, Bisphenol AF]
AUC(0-inf) ([1]; female): 15800 ng·h/mL
Cmax ([1]; female): 92300 ng/mL
Vd ([1]; female): 1.36 L/kg
half-life ([1]; female, Alpha half-life, female mice): 0.106 h
half-life ([1]; female, Beta half-life, female mice): 3.03 h
half-life ([1]; female, K10 Half-Life, female mice): 0.119 h
Cl1 ([1]; female mice): 2.15 (0.426) L/h/kg
Cl2 ([1]; female mice): 0.256 (0.108) L/h /kg
K12 ([1]; female mice): 0.696 (0.190) 1/h
K21 ([1]; female mice): 0.257 (0.0225) 1/h
V1 ([1]; female mice): 0.368 (0.129) L/kg
V2 ([1]; female mice): 0.995 (0.388) L/kg
Cl1 ([1]; male mice): 4.51 (0.547) L/h/kg
Cl2 ([1]; male mice): 0.860 (0.324) L/h /kg
K12 ([1]; male mice): 0.189 (0.0802) 1/h
K21 ([1]; male mice): 0.227 (0.0304) 1/h
V1 ([1]; male mice): 4.54 (1.06) L/kg
V2 ([1]; male mice): 3.78 (1.10) L/kg
AUC(0-inf) ([1]; male): 7540 ng·h/mL
Cmax ([1]; male): 7490 ng/mL
Vd ([1]; male): 8.32 L/kg
half-life ([1]; male, Alpha half-life, male mice): 0.566 h
half-life ([1]; male, Beta half-life, male mice): 3.76 h
half-life ([1]; male, K10 Half-Life, male mice): 0.698 h
ED50 [2]: 209.1 mg/kg/day
clearance compared with BPA ([3]; hepatocytes from humans and rodents, in vitro): cleared more slowly than BPA
clearance rank order between species ([3]; hepatocytes in vitro): rat > mouse > human
AUC(0-inf) ([4]; female): 45300 ng·h/mL
Cmax ([4]; female): 71500 ng/mL
Vd ([4]; female): 0.697 L/kg
Cl1 [4, 9]: 0.751 (0.118) L/h/kg
K12 [4, 9]: 0.0656 (0.0398) 1/h
K21 [4, 9]: 0.141 (0.0339) 1/h
V1 [4, 9]: 0.476 (0.115) L/kg
V2 [4, 9]: 0.222 (0.0922) L/kg
Cl1 [4, 10]: 0.753 (0.102) L/h/kg
Cl2 [4, 10]: 0.0225 (0.00797) L/h /kg
K12 [4, 10]: 0.0503 (0.0151) 1/h
K21 [4, 10]: 0.0892 (0.0147) 1/h
V1 [4, 10]: 0.448 (0.0811) L/kg
V2 [4, 10]: 0.253 (0.0785) L/kg
AUC(0-inf) ([4]; male): 45200 ng·h/mL
Cmax ([4]; male): 75900 ng/mL
Vd ([4]; male): 0.7 L/kg
oral LD50 [5]: 3400 mg/kg
bioavailability ([6]; both, Hsd:Sprague Dawley SD): ~1%
Tmax ([6]; both, Hsd:Sprague Dawley SD, 34 mg/kg): 0.767 to 0.812 h
AUC(0-inf) [6, 11]: 1.37 µM·h
Cmax [6, 11]: 142 nM
bioavailability [6, 11]: 1.02%
bioavailability ([6]; female, Harlan Sprague Dawley (Hsd:Sprague Dawley SD), 340 mg/kg): 1.06%
Tmax ([6]; female, Hsd:Sprague Dawley SD): 0.767 to 1.34 h
AUC(0-inf) [6, 12]: 461 ng·h/mL
Cmax [6, 12]: 47.4 ng/mL
Tmax [6, 12]: 0.767 h
half-life ([6]; female, Hsd:Sprague Dawley SD, 34 mg/kg, Alpha Half-life, free BPAF, female rats, 34 mg/kg gavage): 0.384 h
half-life ([6]; female, Hsd:Sprague Dawley SD, 34 mg/kg, Beta Half-life, free BPAF, female rats, 34 mg/kg gavage): 8.68 h
half-life ([6]; female, Hsd:Sprague Dawley SD, 34 mg/kg, K10 Half-Life, free BPAF, female rats, 34 mg/kg gavage): 3.35 h
AUC(0-inf) [6, 13]: 1470 ng·h/mL
Cmax [6, 13]: 245 ng/mL
Tmax [6, 13]: 0.658 h
AUC(0-inf) [6, 14]: 4810 ng·h/mL
Cmax [6, 14]: 555 ng/mL
Tmax [6, 14]: 1.34 h
Dose-normalized AUC0−∞ [6, 15]: 13.6 (nmol.h/mL)/(mmol/kg)
Dose-normalized Cmax [6, 15]: 1.406 (nmol/mL)/(mmol/kg)
Cl1_F [6, 16]: 73.8 (13.3) L/h/kg
Cl2_F [6, 16]: 350 (4650) L/h /kg
K12 [6, 16]: 0.981 (31.1) 1/h
K21 [6, 16]: 0.698 (1.29) 1/h
V1_F [6, 16]: 357 (6600) L/kg
V2_F [6, 16]: 502 (5820) L/kg
Cl1_F [6, 17]: 74.7 (13.4) L/h/kg
Cl2_F [6, 17]: 194 (503) L/h /kg
K12 [6, 17]: 1.07 (19.3) 1/h
K21 [6, 17]: 0.215 (0.115) 1/h
V1_F [6, 17]: 181 (2810) L/kg
V2_F [6, 17]: 899 (2050) L/kg
Cl1_F [6, 18]: 70.7 (94.0) L/h/kg
Cl2_F [6, 18]: 101 (180) L/h /kg
K12 [6, 18]: 0.433 (15.4) 1/h
K21 [6, 18]: 0.0391 (0.0929) 1/h
V2_F [6, 18]: 2580 (6150) L/kg
Cl1_F [6, 19]: 85.2 (20.0) L/h/kg
Cl2_F [6, 19]: 193 (24800) L/h /kg
K12 [6, 19]: 0.849 (604) 1/h
K21 [6, 19]: 0.257 (0.137) 1/h
V1_F [6, 19]: 227 (132000) L/kg
V2_F [6, 19]: 752 (966600) L/kg
Cl1_F [6, 20]: 89.1 (52.4) L/h/kg
Cl2_F [6, 20]: 122 (2520) L/h /kg
K12 [6, 20]: 0.402 (62.7) 1/h
K21 [6, 20]: 0.0972 (0.207) 1/h
V1_F [6, 20]: 304 (41100) L/kg
V2_F [6, 20]: 1260 (23900) L/kg
Cl1_F [6, 21]: 70.3 (20.8) L/h/kg
Cl2_F [6, 21]: 36.9 (1910) L/h /kg
K12 [6, 21]: 0.156 (49.5) 1/h
K21 [6, 21]: 0.0814 (0.223) 1/h
V1_F [6, 21]: 237 (62900) L/kg
V2_F [6, 21]: 454 (24400) L/kg
bioavailability ([6]; male, Harlan Sprague Dawley (Hsd:Sprague Dawley SD), 34 mg/kg): 0.88%
bioavailability ([6]; male, Harlan Sprague Dawley (Hsd:Sprague Dawley SD), 110 mg/kg): 0.84%
bioavailability ([6]; male, Harlan Sprague Dawley (Hsd:Sprague Dawley SD), 340 mg/kg): 1.07%
Tmax ([6]; male, Hsd:Sprague Dawley SD): 0.812 to 2.3 h
AUC(0-inf) [6, 22]: 399 ng·h/mL
Cmax [6, 22]: 60.7 ng/mL
Tmax [6, 22]: 0.812 h
half-life ([6]; male, Hsd:Sprague Dawley SD, 34 mg/kg, Alpha Half-life, free BPAF, male rats, 34 mg/kg gavage): 0.491 h
half-life ([6]; male, Hsd:Sprague Dawley SD, 34 mg/kg, Beta Half-life, free BPAF, male rats, 34 mg/kg gavage): 10.2 h
half-life ([6]; male, Hsd:Sprague Dawley SD, 34 mg/kg, K10 Half-Life, free BPAF, male rats, 34 mg/kg gavage): 1.85 h
AUC(0-inf) [6, 23]: 1230 ng·h/mL
Cmax [6, 23]: 142 ng/mL
Tmax [6, 23]: 1.43 h
AUC(0-inf) [6, 24]: 4830 ng·h/mL
Cmax [6, 24]: 552 ng/mL
Tmax [6, 24]: 2.2 h
half-life ([7]; both, B6C3F1/N, mouse, plasma, po, elimination half-life, free BPAF, male and female mice, 34 mg/kg gavage): ≤ 4.22 h
AUC(0-inf) [7, 25]: 495 ng·h/mL and 1.47 µM·h
Cmax [7, 25]: 105 ng/mL and 313 nM
Tmax [7, 25]: 0.342 h
half-life ([7]; female, B6C3F1/N, mouse, plasma, po, Alpha Half-life, free BPAF, female mice, 34 mg/kg gavage, mean (SE)): 0.209 h
half-life ([7]; female, B6C3F1/N, mouse, plasma, po, Beta Half-life, free BPAF, female mice, 34 mg/kg gavage, mean (SE)): 9.02 h
bioavailability ([7]; female, B6C3F1/N, mouse, plasma, po, Bioavailability, free BPAF, Female Mice, 34 mg/kg gavage): 3%
half-life ([7]; female, B6C3F1/N, mouse, plasma, po, K10 Half-Life, free BPAF, female mice, 34 mg/kg gavage, mean (SE)): 1.33 h
bioavailability ([7]; free BPAF, Female Mice, 34 mg/kg gavage): 3.13%
bioavailability ([7]; free BPAF, Male Mice, 34 mg/kg gavage): 5.64%
Dose-normalized AUC0−∞ [7, 26]: 14.6 (nmol.h/mL)/(mmol/kg)
Dose-normalized Cmax [7, 26]: 3.099 (nmol/mL)/(mmol/kg)
Cl1_F [7, 27]: 68.7 (22.5) L/h/kg
Cl2_F [7, 27]: 313 (17400) L/h /kg
K12 [7, 27]: 2.38 (899) 1/h
K21 [7, 27]: 0.487 (0.497) 1/h
V1_F [7, 27]: 131 (42200) L/kg
V2_F [7, 27]: 642 (35300) L/kg
Cl1_F [7, 28]: 80.0 (22.5) L/h/kg
Cl2_F [7, 28]: 13.2 (226) L/h /kg
K12 [7, 28]: 0.0271 (0.476) 1/h
K21 [7, 28]: 0.369 (5.1) 1/h
V1_F [7, 28]: 487 (238) L/kg
AUC(0-inf) [7, 29]: 425 ng·h/mL
Cmax [7, 29]: 64.1 ng/mL
Tmax [7, 29]: 0.455 h
half-life ([7]; male, B6C3F1/N, mouse, plasma, po, Alpha Half-life, free BPAF, male mice, 34 mg/kg gavage, mean (SE)): 1.67 h
half-life ([7]; male, B6C3F1/N, mouse, plasma, po, Beta Half-life, free BPAF, male mice, 34 mg/kg gavage, mean (SE)): 4.73 h
bioavailability ([7]; male, B6C3F1/N, mouse, plasma, po, Bioavailability, free BPAF, Male Mice, 34 mg/kg gavage): ~6%
half-life ([7]; male, B6C3F1/N, mouse, plasma, po, K10 Half-Life, free BPAF, male mice, 34 mg/kg gavage, mean (SE)): 4.22 h
Tmax (maximum plasma BPAF concentration observed at) [8]: 1 h
